Experimental data from patent US7589097B2, “Triazol[4,5-d] pyramidine derivatives and their use as purinergic receptor antagonists” (Vernalis Research Limited, priority 2001, dated 2009).
Structures can show the parent of a compound that is named as a salt.

Compound | melting point
C[Si](C)(C)CCOCOc1cc([N+](=O)[O-])ccc1Cn1nnc2c(-c3ccco3)nc(N)nc21 | 136.5 to 137.6 °C
Nc1nc(-c2ccco2)c2nnn(Cc3cc([N+](=O)[O-])cc([N+](=O)[O-])c3)c2n1 | 264.5 to 264.8 °C
Cc1ccc(-c2nc(N)nc3c2nnn3Cc2ccccc2N)o1 (as salt: hydrochloride) [Example 74, 3-(2-aminobenzyl)-7-(5-methyl-2-furyl)-3H-[1,2,3]triazolo[4,5-d]pyrimidine-5-amine hydrochloride] | 214.6 to 215.2 °C
Cc1ccc(-c2nc(N)nc3c2nnn3Cc2cc(N)ccc2F)o1 (as salt: hydrochloride) [Example 84, 3-(5-amino-2-fluorobenzyl)-7-(5-methyl-2-furyl)-3H-[1,2,3]triazolo[4,5-d]pyrimidine-5-amine hydrochloride] | 235.8 to 236.5 °C
CNCc1cccc(Cn2nnc3c(-c4ccco4)nc(N)nc32)n1 (as salt: hydrochloride) [Example 226, 7-(2-Furyl)-3-(6-(N-methylamino)methyl-2-pyridylmethyl)-3H-[1,2,3]triazolo[4,5-d]pyrimidine-5-amine] | 221.4 to 221.5 °C
COc1ccc(Cn2nnc3c(-c4ccco4)nc(N)nc32)cc1OC (as salt: trifluoroacetate) [Example 122, 3-(3,4-dimethoxybenzyl)-7-(2-furyl)-3H-[1,2,3]triazolo[4,5-d]pyrimidine-5-amine trifluoroacetate salt] | 227.5 to 228.5 °C
Cc1ccc(-c2nc(N)nc3[nH]nnc23)o1 [Example 19, 7-(5-Methyl-2-furyl)-1H-[1,2,3]triazolo[4,5-d]pyrimidine-5-amine] | 291.8 to 292 °C
Cc1cccc(Cn2nnc3c(-c4ccco4)nc(N)nc32)c1 [Example 23, 7-(2-furyl)-3-(3-methylbenzyl)-3H-[1,2,3]triazolo[4,5-d]pyrimidine-5-amine] | 187.3 to 187.7 °C
Nc1nc(-c2ccco2)c2nnn(Cc3ccccn3)c2n1 [Example 24, 7-(2-Furyl)-3-(2-pyridylmethyl)-3H-[1,2,3]triazolo[4,5-d]pyrimidine-5-amine] | 196.9 to 197.1 °C
Nc1nc(-c2ccco2)c2nnn(CC(=O)O)c2n1 [Example 26, (5-Amino-7-(2-furyl)-3H-[1,2,3]triazolo[4,5-d]pyrimidin-3-yl)acetic acid] | 291 to 291.1 °C
Nc1nc(-c2ccco2)c2nnn(Cc3cccc(Cl)c3)c2n1 [Example 27, 3-(3-chlorobenzyl)-7-(2-furyl)-3H-[1,2,3]triazolo[4,5-d]pyrimidine-5-amine] | 209.9 to 210.1 °C
COc1cccc(Cn2nnc3c(-c4ccco4)nc(N)nc32)n1 [Example 32, 7-(2-furyl)-3-(6-methoxy-2-pyridylmethyl)-3H-[1,2,3]triazolo[4,5-d]pyrimidine-5-amine] | 191.4 to 192 °C
Nc1nc(-c2ccco2)c2nnn(Cc3cccs3)c2n1 [Example 33, 7-(2-furyl)-3-(2-thienylmethyl)-3H-[1,2,3]triazolo[4,5-d]pyrimidine-5-amine] | 204.1 to 204.2 °C
Nc1nc(-c2cccs2)c2nnn(Cc3ccccc3F)c2n1 [Example 35, 3-(2-fluorobenzyl)-7-(2-thienyl)-3H-[1,2,3]triazolo[4,5-d]pyrimidine-5-amine] | 174 to 174.2 °C
Cc1ccc(-c2nc(N)nc3c2nnn3Cc2cccc(N)c2)o1 [Example 36, 3-(3-aminobenzyl)-7-(5-methyl-2-furyl)-3H-[1,2,3]triazolo[4,5-d]pyrimidine-5-amine] | 231.7 to 234 °C
Cc1cccc(Cn2nnc3c(-c4ccco4)nc(N)nc32)n1 [Example 37, 7-(2-furyl)-3-(6-methyl-2-pyridylmethyl)-3H-[1,2,3]triazolo[4,5-d]pyrimidine-5-amine] | 200.8 to 218.9 °C
Cc1cnc(-c2nc(N)nc3c2nnn3Cc2ccccc2F)s1 [Example 38, 3-(2-fluorobenzyl)-7-(5-methyl-2-thiazolyl)-3H-[1,2,3]triazolo[4,5-d]pyrimidine-5-amine] | 242 to 242.1 °C
Nc1nc(-c2cncs2)c2nnn(Cc3cccc([N+](=O)[O-])c3)c2n1 [Example 45, 3-(3-nitrobenzyl)-7-(5-thiazolyl)-3H-[1,2,3]triazolo[4,5-d]pyrimidine-5-amine] | 190.4 to 190.8 °C
Nc1cccc(Cn2nnc3c(-c4cccs4)nc(N)nc32)c1 [Example 48, 3-(3-aminobenzyl)-7-(2-thienyl)-3H-[1,2,3]triazolo[4,5-d]pyrimidine-5-amine] | 265.9 to 266 °C
Nc1cccc(Cn2nnc3c(-c4cncs4)nc(N)nc32)c1 [Example 50, 3-(3-aminobenzyl)-7-(5-thiazolyl)-3H-[1,2,3]triazolo[4,5-d]pyrimidine-5-amine] | 228.2 to 228.3 °C
COc1ccc(F)c(Cn2nnc3c(-c4ccco4)nc(N)nc32)c1 [Example 51, 3-(2-fluoro-5-methyoxybenzyl)-7-(2-furyl)-3H-[1,2,3]triazolo[4,5-d]pyrimidine-5-amine] | 182.9 to 183.1 °C

Compound | melting point
Nc1nc(-c2ccco2)c2nnn(CC(=O)Nc3ccccn3)c2n1 [Example 52, (5-amino-7-(2-furyl)-3H-[1,2,3]triazolo[4,5-d]pyrimidin-3-yl)-N-(2-pyridyl)acetamide] | 263.8 to 264 °C
Nc1nc(-c2ccco2)c2nnn(CC(=O)NCc3ccccn3)c2n1 [Example 53, (5-amino-7-(2-furyl)-3H-[1,2,3]triazolo[4,5-d]pyrimidin-3-yl)-N-(2-pyridylmethyl)acetamide] | 256.1 to 256.4 °C
Nc1nc(-c2ccco2)c2nnn(CC(=O)Nc3ccccc3)c2n1 [Example 54, (5-amino-7-(2-furyl)-3H-[1,2,3]triazolo[4,5-d]pyrimidin-3-yl)-N-phenylacetamide] | 292.2 to 292.3 °C
Cc1cccc(Cn2nnc3c(-c4ccc(C)o4)nc(N)nc32)n1 [Example 59, 7-(5-methyl-2-furyl)-3-(6-methyl-2-pyridylmethyl)-3H-[1,2,3]triazolo[4,5-d]pyrimidine-5-amine] | 187.9 to 188.7 °C
Cc1ccc(-c2nc(N)nc3c2nnn3Cc2c(F)cccc2F)o1 [Example 60, 3-(2,6-difluorobenzyl)-7-(5-methyl-2-furyl)-3H-[1,2,3]triazolo[4,5-d]pyrimidine-5-amine] | 209.7 to 209.8 °C
Cc1ccc(-c2nc(N)nc3c2nnn3Cc2cccs2)o1 [Example 61, 7-(5-methyl-2-furyl)-3-(2-thienylmethyl)-3H-[1,2,3]triazolo[4,5-d]pyrimidine-5-amine] | 193.8 to 194.1 °C
Cc1ccc(-c2nc(N)nc3c2nnn3Cc2cccc(Cl)c2)o1 [Example 62, 3-(3-chlorobenzyl)-7-(5-methyl-2-furyl)-3H-[1,2,3]triazolo[4,5-d]pyrimidine-5-amine] | 210.4 to 210.5 °C
COc1ccnc(Cn2nnc3c(-c4ccco4)nc(N)nc32)c1 [Example 63, 7-(2-furyl)-3-(4-methoxy-2-pyridylmethyl)-3H-[1,2,3]triazolo[4,5-d]pyrimidine-5-amine] | 201.1 to 201.2 °C
Nc1nc(-c2ccco2)c2nnn(Cc3cc(F)ccc3F)c2n1 [Example 65, 3-(2,5-difluorobenzyl)-7-(2-furyl)-3H-[1,2,3]triazolo[4,5-d]pyrimidine-5-amine] | 208.1 to 208.2 °C
COc1ccc([N+](=O)[O-])cc1Cn1nnc2c(-c3ccco3)nc(N)nc21 [Example 66, 7-(2-Furyl)-3-(2-methoxy-5-nitrobenzyl)-3H-[1,2,3]triazolo[4,5-d]pyrimidine-5-amine] | 243.4 to 243.9 °C
CNC(=O)c1cccc(Cn2nnc3c(-c4ccc(C)o4)nc(N)nc32)c1 [Example 67, 3-(5-amino-7-(5-methyl-2-furyl)-3H-[1,2,3]triazolo[4,5-d]pyrimidin-3-ylmethyl)-N-methylbenzamide] | 252.9 to 253 °C
CC(=O)NCc1cccc(Cn2nnc3c(-c4ccco4)nc(N)nc32)c1 [Example 68, N-(3-(5-amino-7-(2-furyl)-3H-[1,2,3]triazolo[4,5-d]pyrimidin-3-ylmethyl)benzyl)acetamide] | 228.1 to 229.3 °C
Nc1nc(-c2ccco2)c2nnn(Cc3cccc(F)n3)c2n1 [Example 71, 3-(6-fluoro-2-pyridylmethyl)-7-(2-furyl)-3H-[1,2,3]triazolo[4,5-d]pyrimidine-5-amine] | 228.7 to 228.9 °C
COc1ccccc1Cn1nnc2c(-c3ccc(C)o3)nc(N)nc21 [Example 72, 3-(2-methyoxybenzyl)-7-(5-methyl-2-furyl)-3H-[1,2,3]triazolo[4,5-d]pyrimidine-5-amine] | 195.4 to 196.5 °C
Cc1ccc(-c2nc(N)nc3c2nnn3Cc2cccc(CNC(=O)OC(C)(C)C)c2)o1 [Example 73, tert-butyl N-(3-(5-amino-7-(5-methyl-2-furyl)-3H-[1,2,3]triazolo[4,5-d]pyrimidine-3-ylmethyl)benzyl)carbamate] | 178.7 to 179.3 °C
COc1ccccc1Cn1nnc2c(-c3ccco3)nc(N)nc21 [Example 77, 7-(2-furyl)-3-(2-methoxybenzyl)-3H-[1,2,3]triazolo[4,5-d]pyrimidine-5-amine] | 212.1 to 214.3 °C
Nc1ccc(F)c(Cn2nnc3c(-c4ccco4)nc(N)nc32)c1 [Example 79, 3-(5-amino-2-fluorobenzyl)-7-(2-furyl)-3H-[1,2,3]triazolo[4,5-d]pyrimidine-5-amine] | 308.2 to 308.3 °C
Cc1ccc(-c2nc(N)nc3c2nnn3Cc2cccc(Cl)n2)o1 [Example 81, 3-(6-chloro-2-pyridylmethyl)-7-(5-methyl-2-furyl)-3H-[1,2,3]triazolo[4,5-d]pyrimidine-5-amine] | 229.3 to 229.4 °C
Cc1ccc(-c2nc(N)nc3c2nnn3Cc2cccc(-c3ccccc3)n2)o1 [Example 82, 7-(5-methyl-2-furyl)-3-(6-phenyl-2-pyridylmethyl)-3H-[1,2,3]triazolo[4,5-d]pyrimidine-5-amine] | 205 to 205.3 °C
Nc1cccc(Cn2nnc3c(-c4nccs4)nc(N)nc32)c1 [Example 83, 3-(3-aminobenzyl)-7-(2-thiazolyl)-3H-[1,2,3]triazolo[4,5-d]pyrimidine-5-amine] | 252.8 to 253.3 °C
